ChEMBL document CHEMBL4476874, “Compounds for the modulation of myc activity” (2018)

Columns and labels:
[1] = target: Myc proto-oncogene protein (Homo sapiens, UniProt P01106); assay: Inhibition of human c-Myc assessed as reduction in c-Myc/Max/Ebox DNA complex formation using pre-formed complex of c-Myc and biotinylated DNA containing single Ebox-sequence followed by compound addition and further addition of his6-tagged c-Max and incubated for 2 hrs by AlphaScreen assay
NCI-H2171 = assay: Antiproliferative activity against human NCI-H2171 cells after 72 hrs by ATPlite assay; format: functional, cell-based; conditions: NCI-H2171, 72 h

Sequence of Myc proto-oncogene protein (P01106 whole entry): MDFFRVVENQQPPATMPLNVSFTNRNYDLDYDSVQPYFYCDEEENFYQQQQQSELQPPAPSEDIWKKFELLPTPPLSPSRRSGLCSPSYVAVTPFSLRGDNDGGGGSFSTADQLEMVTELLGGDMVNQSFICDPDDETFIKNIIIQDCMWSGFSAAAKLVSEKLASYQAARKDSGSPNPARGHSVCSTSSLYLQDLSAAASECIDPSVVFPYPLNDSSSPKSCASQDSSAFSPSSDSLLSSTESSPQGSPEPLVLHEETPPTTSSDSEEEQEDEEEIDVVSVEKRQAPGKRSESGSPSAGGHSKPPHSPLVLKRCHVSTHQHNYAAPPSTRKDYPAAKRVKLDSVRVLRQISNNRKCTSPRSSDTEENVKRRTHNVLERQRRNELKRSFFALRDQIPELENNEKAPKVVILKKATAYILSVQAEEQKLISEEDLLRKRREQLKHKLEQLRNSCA

| Structure (SMILES) | IC50 [1] | IC50 (NCI-H2171) |
| --- | --- | --- |
| COCCNCCC(=O)Nc1sc2c(c1-c1nc3ccc(-c4cc5ccccc5[nH]4)cc3s1)CCNC2 | > 10 µM |  |
| COCCNCCC(=O)Nc1sc2c(c1-c1nc3ccc(-c4ccccc4NC(C)=O)cc3s1)CCNC2 | > 10 µM |  |
| COCCNCCC(=O)Nc1sc2c(c1-c1nc3ccccc3s1)C[C@@H](C)NC2 |  | < 0.3 µM |
| COCCNCCC(=O)Nc1sc2c(c1-c1nc3ccc(-c4cnccc4C)cc3s1)CCNC2 | > 10 µM |  |
| CNS(=O)(=O)c1ccccc1-c1ccc2nc(-c3c(NC(=O)CCNCCOC)sc4c3CCNC4)sc2c1 | > 10 µM |  |
| COCCNCCC(=O)Nc1sc2c(c1-c1nc3ccc(-c4ccc(OC)nc4C)cc3s1)CCNC2 | > 10 µM |  |
| COCCNCCC(=O)Nc1sc2c(c1-c1nc3cc(-c4ccc(O)c(F)c4)ccc3s1)CCNC2 | > 10 µM |  |
| CC(=O)Nc1sc2c(c1-c1nc3ccc(-c4ccncc4)cc3s1)CCNC2 |  | 0.3 to 1 µM |
| COCCNCCC(=O)Nc1sc2c(c1-c1nc3cc(-c4cccc(C(F)(F)F)c4)ccc3s1)CCNC2 | > 10 µM |  |
| COCCNCCC(=O)Nc1sc2c(c1-c1nc3ccc(-c4ccncc4Cl)cc3s1)CCNC2 | > 10 µM |  |
| COCCNCCC(=O)Nc1sc2c(c1-c1nc3ccc(-c4ccccc4Cl)cc3s1)CCNC2 | > 10 µM |  |
| COCCNCCC(=O)Nc1sc2c(c1-c1nc3ccc(-c4ccnc5[nH]ccc45)cc3s1)CCNC2 | > 10 µM |  |
| COCCNCCC(=O)Nc1sc2c(c1-c1nc3ccc(-c4ccc(O)c(F)c4)cc3s1)CCNC2 | > 10 µM |  |
| CNc1ncc2cc(-c3ccc4sc(-c5c(NC(=O)CCNCCOC)sc6c5CCNC6)nc4c3)ccc2n1 | > 10 µM |  |
| CC(C)NCCC(=O)Nc1sc2c(c1-c1nc3ccccc3s1)CC1CCC2N1 (stereo not given) | 1 to 10 µM | < 0.3 µM |
| COCCNCCC(=O)Nc1sc2c(c1-c1nc3ccc(-c4ccc(F)nc4F)cc3s1)CCNC2 | > 10 µM |  |
| COCCNCCC(=O)Nc1sc2c(c1-c1nc3ccc(-c4ccc(OC)c(OC)c4)cc3s1)CCNC2 | > 10 µM |  |
| COCCNCCC(=O)Nc1sc2c(c1-c1nc3ccc(-c4c(F)cccc4F)cc3s1)CCNC2 | > 10 µM |  |
| COCCNCCC(=O)Nc1sc2c(c1-c1nc3cc(F)ccc3s1)CCN[C@H]2C |  | < 0.3 µM |
| COCCNCCC(=O)Nc1sc2c(c1-c1nc3ccc(-c4ccc5cnn(C)c5c4)cc3s1)CCNC2 | > 10 µM |  |
| CC(C)NCCC(=O)N(C)c1sc2c(c1-c1nc3cc(-c4cnn(C)c4)ccc3s1)CCNC2 | > 10 µM | 1 to 10 µM |
| COCCNCCC(=O)Nc1sc2c(c1-c1nc3ccc(-c4ccc(C(F)(F)F)nc4)cc3s1)CCNC2 | > 10 µM |  |

| Structure (SMILES) | IC50 [1] | IC50 (NCI-H2171) |
| --- | --- | --- |
| CC(C)NCCC(=O)Nc1sc2c(c1-c1nc3cc(C4CCCCC4)ccc3s1)CCNC2 | > 10 µM | 0.3 to 1 µM |
| COCCNCCC(=O)Nc1sc2c(c1-c1nc3ccc(-c4ccccc4NS(C)(=O)=O)cc3s1)CCNC2 | > 10 µM |  |
| COCCNCCC(=O)Nc1sc2c(c1-c1nc3ccc(-c4ccccc4O)cc3s1)CCNC2 | > 10 µM |  |
| COCCNCCC(=O)Nc1sc2c(c1-c1nc3cc(-c4ccc(S(=O)(=O)NC5CC5)cc4)ccc3s1)CCNC2 | > 10 µM |  |
| COCCNCCC(=O)Nc1sc2c(c1-c1nc3cc(-c4ccnc5[nH]ccc45)ccc3s1)CCNC2 | 1 to 10 µM |  |
| COCCNCCC(=O)Nc1sc2c(c1-c1nc3cc(-c4cccc5cccnc45)ccc3s1)CCNC2 | > 10 µM |  |
| COCCNCCC(=O)Nc1sc2c(c1-c1nc3cc(-c4ccccc4NC(C)=O)ccc3s1)CCNC2 | > 10 µM |  |
| COCCNCCC(=O)Nc1sc2c(c1-c1nc3ccc(-c4ccc5ncccc5c4)cc3s1)CCNC2 | > 10 µM |  |
| COCCNCCC(=O)Nc1sc2c(c1-c1nc3ccc(-c4ccnc(C(F)(F)F)c4)cc3s1)CCNC2 | > 10 µM |  |
| COCCNCCC(=O)Nc1sc2c(c1-c1nc3ccc(-c4cc(F)cnc4OC)cc3s1)CCNC2 | > 10 µM |  |
| COCCNCCC(=O)Nc1sc2c(c1-c1nc3ccc(-c4ccc(S(=O)(=O)NC5CC5)cc4)cc3s1)CCNC2 | > 10 µM |  |
| COCCNCCC(=O)Nc1sc2c(c1-c1nc3cc(-c4ccc5c(=O)[nH]ccc5c4)ccc3s1)CCNC2 | > 10 µM |  |
| COCCNCCC(=O)Nc1sc2c(c1-c1nc3ccc(-c4cc5cccc(OC)c5[nH]4)cc3s1)CCNC2 | 1 to 10 µM |  |
| COCCNCCC(=O)Nc1sc2c(c1-c1nc3ccc(-c4cnc(OC)nc4)cc3s1)CCNC2 | 1 to 10 µM |  |
| COCCNCCC(=O)Nc1sc2c(c1-c1nc3ccc(-c4ccc(OC)nc4)cc3s1)CCNC2 | 1 to 10 µM |  |
| COCCNCCC(=O)Nc1sc2c(c1-c1nc3cc(-c4cc5ccccc5[nH]4)ccc3s1)CCNC2 | > 10 µM |  |
| COCCNCCC(=O)Nc1sc2c(c1-c1nc3cc(-c4ccc5c(c4)NC(=O)C5)ccc3s1)CCNC2 | > 10 µM |  |
| CC(=O)Nc1sc2c(c1-c1nc3ccccc3s1)C[C@@H](C)N[C@H]2C (relative stereo) |  | 0.3 to 10 µM |
| CC[C@H](C)NCCC(=O)Nc1sc2c(c1-c1nc3ccccc3s1)CC(C)NC2C (single isomer, unassigned; 620) |  | 1 to 10 µM |
| CC[C@H](C)NCCC(=O)Nc1sc2c(c1-c1nc3ccccc3s1)CC(C)NC2C (single isomer, unassigned; 621) |  | 1 to 10 µM |
| CC[C@H](C)NCCC(=O)Nc1sc2c(c1-c1nc3ccccc3s1)CC(C)NC2C (single isomer, unassigned; 624) |  | < 0.3 µM |

The next lines start with the values.

| IC50 [1] | IC50 (NCI-H2171) | Structure (SMILES) |
| --- | --- | --- |
| 1 to 10 µM | 0.3 to 1 µM | Cc1noc(C)c1-c1ccc2sc(-c3c(NC(=O)CCNC(C)C)sc4c3CCNC4)nc2c1 |
| 1 to 10 µM |  | COCCNCCC(=O)Nc1sc2c(c1-c1nc3cc(-c4cc5cccc(OC)c5[nH]4)ccc3s1)CCNC2 |
| 0.3 to 1 µM | < 0.3 µM | CCOc1ccc(-c2ccc3sc(-c4c(NC(=O)CCNCCOC)sc5c4CCNC5)nc3c2)cn1 |
| < 0.3 µM | < 0.3 µM | CNCCC(=O)Nc1sc2c(c1-c1nc3ccccc3s1)CCN(C(C)C)C2 |
| < 0.3 µM | < 0.3 µM | CC(C)NCCC(=O)Nc1sc2c(c1-c1nc3ccc(-c4cnn(C)c4)cc3s1)CCNC2 |
| < 0.3 µM | < 0.3 µM | CC(C)NCCC(=O)Nc1sc2c(c1-c1nc3cc(-c4cccnc4)ccc3s1)CCNC2 |
| 1 to 10 µM | 1 to 10 µM | CCC(C)N(CCC(=O)Nc1sc2c(c1-c1nc3ccccc3s1)CCNC2)C(C)=O (stereo not given) |
| 1 to 10 µM |  | COCCNCCC(=O)Nc1sc2c(c1-c1nc3ccc(-c4ccc5c(c4)NC(=O)C5)cc3s1)CCNC2 |
| 0.3 to 1 µM | 0.3 to 1 µM | CC(C)N1CCc2c(sc(NC(=O)CCN3CCN(C)CC3)c2-c2nc3ccccc3s2)C1 |
| 1 to 10 µM |  | COCCNCCC(=O)Nc1sc2c(c1-c1nc3cc(-c4ccccc4Cl)ccc3s1)CCNC2 |
| < 0.3 µM | 1 to 10 µM | Cc1nn(C)cc1-c1ccc2sc(-c3c(NC(=O)CCNC(C)C)sc4c3CCNC4)nc2c1 |
| 1 to 10 µM |  | COCCNCCC(=O)Nc1sc2c(c1-c1nc3ccc(-c4ccc(C(=O)OC)nc4)cc3s1)CCNC2 |
| 1 to 10 µM |  | COCCNCCC(=O)Nc1sc2c(c1-c1nc3ccc(-c4cccc5[nH]ncc45)cc3s1)CCNC2 |
| 0.3 to 1 µM |  | COCCNCCC(=O)Nc1sc2c(c1-c1nc3ccc(-c4cccc(C(=O)N5CCN(C)CC5)c4)cc3s1)CCNC2 |
| 0.3 to 1 µM | 1 to 10 µM | CCN(CC)CCNCCC(=O)Nc1sc2c(c1-c1nc3ccccc3s1)CCN(C(C)C)C2 |
| 1 to 10 µM |  | COCCNCCC(=O)Nc1sc2c(c1-c1nc3cc(-c4ccccc4O)ccc3s1)CCNC2 |
| < 0.3 µM | 0.3 to 1 µM | CC(C)NCCC(=O)Nc1sc2c(c1-c1nc3cc(-c4ccc(O)cc4)ccc3s1)CCNC2 |
| < 0.3 µM | < 0.3 µM | CC(C)NCCC(=O)Nc1sc2c(c1-c1nc3cc(-c4cn[nH]c4)ccc3s1)CCNC2 |
| 0.3 to 1 µM | < 0.3 µM | CC(C)NCCC(=O)Nc1sc2c(c1-c1nc3ccccc3o1)CCNC2 |
| 0.3 to 1 µM | 0.3 to 1 µM | CC(C)N1CCc2c(sc(NC(=O)CCNCCc3cccnc3)c2-c2nc3ccccc3s2)C1 |

| IC50 [1] | IC50 (NCI-H2171) | Structure (SMILES) |
| --- | --- | --- |
| < 0.3 µM | < 0.3 µM | NCCC(=O)Nc1sc2c(c1-c1nc3ccccc3s1)CCNC2 |
| 1 to 10 µM |  | COCCNCCC(=O)Nc1sc2c(c1-c1nc3cc(-c4ccc5c(c4)NC(=O)CO5)ccc3s1)CCNC2 |
| 0.3 to 1 µM |  | COCCNCCC(=O)Nc1sc2c(c1-c1nc3ccc(-c4ccc(C(=O)N5CCOCC5)cc4)cc3s1)CCNC2 |
| < 0.3 µM | 0.3 to 1 µM | COc1ccc2sc(-c3c(NC(=O)CCNC(C)C)sc4c3CCNC4)nc2c1Cl |
| 0.3 to 1 µM | < 0.3 µM | CC(C)N1CCc2c(sc(NC(=O)CCN3CCOCC3)c2-c2nc3ccccc3s2)C1 |
| 1 to 10 µM |  | COCCNCCC(=O)Nc1sc2c(c1-c1nc3cc(-c4cc(F)cnc4OC)ccc3s1)CCNC2 |
| 1 to 10 µM |  | CC(C)NCCC(=O)Nc1sc2c(c1-c1nc3c(NC(=O)c4ccccc4)cccc3s1)CCNC2 |
| 0.3 to 1 µM | < 0.3 µM | CC(C)NCCC(=O)Nc1sc2c(c1-c1nc3cc(N4CCS(=O)(=O)CC4)ccc3s1)CCNC2 |
| < 0.3 µM |  | CC(C)NCCC(=O)Nc1sc2c(c1-c1nc3cc(C(C)O)ccc3s1)CCNC2 (stereo not given) |
| < 0.3 µM | < 0.3 µM | Cc1cn(-c2ccc3sc(-c4c(NC(=O)CCNC(C)C)sc5c4CCNC5)nc3c2)cn1 |
| 1 to 10 µM |  | COCCNCCC(=O)Nc1sc2c(c1-c1nc3ccc(-c4cncc(C#N)c4)cc3s1)CCNC2 |
| < 0.3 µM | 0.3 to 1 µM | CC(C)NCCC(=O)Nc1sc2c(c1-c1nc3cc(C4=CCN(S(C)(=O)=O)CC4)ccc3s1)CCNC2 |
| 1 to 10 µM | 1 to 10 µM | CC(C)N1CCc2c(sc(NC(=O)CCNCc3ccccc3)c2-c2nc3ccccc3s2)C1 |
| 1 to 10 µM |  | COCCNCCC(=O)Nc1sc2c(c1-c1nc3cc(-c4ccccc4)ccc3s1)CCNC2 |
| < 0.3 µM | 0.3 to 1 µM | Cc1cc(-c2ccc3sc(-c4c(NC(=O)CCNC(C)C)sc5c4CCNC5)nc3c2)n(C)n1 |
| 0.3 to 1 µM |  | COCCNCCC(=O)Nc1sc2c(c1-c1nc3cc(-c4cccc(C(=O)NCCN(C)C)c4)ccc3s1)CCNC2 |
| < 0.3 µM |  | COCCNCCC(=O)Nc1sc2c(c1-c1nc3c(N4CCCC4)cccc3s1)CCNC2 |
| 0.3 to 1 µM | < 0.3 µM | CC(C)N1CCc2c(sc(NC(=O)CCN(C)C)c2-c2nc3ccccc3s2)C1 |
| 0.3 to 1 µM | 1 to 10 µM | COCCNCCC(=O)Nc1sc2c(c1-c1nc3ccccc3s1)CCN(C(C)C)C2 |
| 0.3 to 1 µM | < 0.3 µM | COCCNCCC(=O)Nc1sc2c(c1-c1nc3ccc(-c4cncc(F)c4)cc3s1)CCNC2 |
